Values after ≈ are worked out from the molar mass of the structure shown. Active and inactive are the calls of the source. No cut-off for these calls is given here.
Tests used:
Staphylococcus aureus [1] = assay: Antibacterial activity against methicillin-resistant Staphylococcus aureus 936 after 18 hrs by CLSI based broth microdilution method; type: functional; conditions: Staphylococcus aureus, 936, 18 h
Erythrocyte = assay: Hemolytic activity in human RBC measured after 1 hr by microplate reader analysis; type: ADME, cell-based
[2] = Cytotoxicity against mouse RAW264.7 cells assessed as cell proliferation at 64 uM after 1 hr by MTT assay relative to control; type: cell-based; conditions: read-out: Activity
Escherichia coli [3] = assay: Antibacterial activity against Escherichia coli ATCC 25922 after 18 hrs in presence of NaCl by CLSI based broth microdilution method (reference value: 16 microM); type: functional; conditions: ATCC 25922, 18 h
Escherichia coli [4] = assay: Antibacterial activity against Escherichia coli ATCC 25922 after 18 hrs in presence of KCl by CLSI based broth microdilution method (reference value: 16 microM); type: functional; conditions: ATCC 25922, 18 h
Escherichia coli [5] = assay: Antibacterial activity against Escherichia coli ATCC 25922 after 18 hrs in presence of MgCl2 by CLSI based broth microdilution method (reference value: 16 microM); type: functional; conditions: ATCC 25922, 18 h
Escherichia coli [6] = assay: Antibacterial activity against Escherichia coli ATCC 25922 after 18 hrs in presence of FeCl3 by CLSI based broth microdilution method (reference value: 16 microM); type: functional; conditions: ATCC 25922, 18 h
Staphylococcus aureus [7] = assay: Antibacterial activity against Staphylococcus aureus ATCC 25923 after 18 hrs in presence of MgCl2 by CLSI based broth microdilution method (reference value: 128 microM); type: functional; conditions: ATCC 25923, 18 h
Klebsiella pneumoniae = assay: Potentiation of rifampicin-induced antibacterial activity against Klebsiella pneumoniae ATCC 700603 assessed as FICI after 18 hrs by checker board assay; type: functional
Escherichia coli [8] = assay: Antibiofilm activity against Escherichia coli ATCC 25922 assessed as reduction in biofilm inhibition at MIC after 24 hrs by crystal violet staining based assay relative to control; type: functional
Escherichia coli [9] = assay: Antimicrobial activity against Escherichia coli ATCC 25922 at 1 mM preincubated for 6 hrs in presence of 2 ug/ml chymotrypsin and measured after 18 hrs by microplate reader analysis; type: functional, organism-based
Escherichia coli [10] = assay: Antimicrobial activity against Escherichia coli ATCC 25922 preincubated for 1 hr in presence of 10% mouse serum and measured after 18 hrs by CLSI-based broth microdilution assay (reference value: 16 microM); type: functional
Escherichia coli [11] = assay: Antimicrobial activity against Escherichia coli ATCC 25922 preincubated for 6 hrs in presence of 10% mouse serum and measured after 18 hrs by CLSI-based broth microdilution assay (reference value: 16 microM); type: functional
Escherichia coli [12] = assay: Induction of outer membrane permeabilization in Escherichia coli ATCC 25922 measured up to 12 mins by NPN-dye based assay; type: organism-based
Staphylococcus aureus [13] = assay: Ratio of antibacterial activity against Staphylococcus aureus ATCC 25923 in presence of NaCl to antibacterial activity against Staphylococcus aureus ATCC 25923; type: functional
Staphylococcus aureus [14] = assay: Antibiofilm activity against Staphylococcus aureus ATCC 25923 at 1 to 2 times of MIC after 24 hrs by crystal violet staining based assay; type: functional, organism-based

In the case of `CCCC(=O)NC(Cc1cn(CCCC[C@H](NC(C)=O)C(=O)NCC(=O)N[C@@H](CC(C)C)C(=O)N[C@@H](CC(C)C)C(=O)N[C@H](CCCCN)C(=O)N[C@@H](CCCNC(=N)N)C(=O)N[C@H](C(=O)N[C@H](CCCCN)C(=O)N[C@H](C(=O)N[C@@H](CC(C)C)C(=O)N[C@@H](CC(C)C)C(N)=O)[C@@H](C)O)[C@@H](C)CC)nn1)C(=O)NCC(=O)N[C@@H](CC(C)C)C(=O)N[C@@H](CC(C)C)C(=O)N[C@H](CCCCN)C(=O)N[C@@H](CCCNC(=N)N)C(=O)N[C@H](C(=O)N[C@H](CCCCN)C(=O)N[C@H](C(=O)N[C@@H](CC(C)C)C(=O)N[C@@H](CC(C)C)C(N)=O)[C@@H](C)O)[C@@H](C)CC` (stereo partly specified), the MIC (Staphylococcus aureus [1]) is reported as 128 µM (≈ 342 µg/mL), the MHC10 (Erythrocyte) is reported as greater than 256 µM and the viability at 1 h, 64 µM [2] is reported as greater than 80%. It also gave an MIC (Escherichia coli [3]) of 128 µM, an MIC (Escherichia coli [4]) of 16 µM and an MIC (Escherichia coli [5]) of 32 µM. For the same compound, the MIC (Escherichia coli [6]) was 16 µM, the MIC (Staphylococcus aureus [7]) was greater than 128 µM and the “fractional inhibitory concentration index (FICI)” value (Klebsiella pneumoniae) was 0.3125. For the same compound, the “inhibition (INH)” value (Escherichia coli [8]) was greater than 50%, the Activity (Escherichia coli [9]) was “Active” and the MIC (Escherichia coli [10]) was 16 µM. For the same compound, the MIC (Escherichia coli [11]) was 16 µM, the Activity (Escherichia coli [12]) was “Dose-dependent effect” and the Ratio (Staphylococcus aureus [13]) was 2 - 4. For the same compound, the inhibition (Staphylococcus aureus [14]) was “Active”.
